Measurements published in article PMC5704987 (Fetal and pediatric pathology, 2017).
“And” between values parts separate entries of the source, which are not always exact repeats. Identical values can stand only once. Like-named read-outs stand apart in the source and are kept apart here.

Columns and labels:
[1] = Progesterone metabolism in pooled human liver microsomes
[2] = test system: oxytocin-induced uterine contractility; settings: murine model, preliminary work by the group; ref [10]; cited from earlier work
[3] = In vitro in vivo extrapolation to fetal liver; parameters: species or system human
recombinant CYP2A6 = biological target: T1, recombinant CYP2A6 (Homo sapiens, UniProt P11509); assay: Progesterone incubation with recombinant CYP2A6; assay type: in vitro ADME; settings: recombinant CYP2A6, data not shown
T1 sequence (P11509 1-494): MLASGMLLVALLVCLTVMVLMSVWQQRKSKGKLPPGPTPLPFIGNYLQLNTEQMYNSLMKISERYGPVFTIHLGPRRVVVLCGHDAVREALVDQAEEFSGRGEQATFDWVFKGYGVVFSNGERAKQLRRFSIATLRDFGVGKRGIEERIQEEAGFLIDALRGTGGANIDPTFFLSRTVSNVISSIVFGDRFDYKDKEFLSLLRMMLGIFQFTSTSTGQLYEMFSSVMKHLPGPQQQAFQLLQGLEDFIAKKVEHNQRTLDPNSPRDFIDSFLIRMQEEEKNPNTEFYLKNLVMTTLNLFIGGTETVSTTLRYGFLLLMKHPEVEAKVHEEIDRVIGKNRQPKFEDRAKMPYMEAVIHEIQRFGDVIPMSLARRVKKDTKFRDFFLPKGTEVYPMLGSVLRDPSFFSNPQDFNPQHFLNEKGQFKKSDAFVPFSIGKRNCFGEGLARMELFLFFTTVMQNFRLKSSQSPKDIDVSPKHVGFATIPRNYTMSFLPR

recombinant human CYP3A5 = recombinant human CYP3A5 (Homo sapiens, UniProt P20815); settings: recombinant enzyme, pH 7.4
[4] = human, microsomes, pH 7.4
in vitro = settings: human
[5] = In vitro in vivo extrapolation to maternal liver; parameters: species or system human
[6] = biological target: T2, recombinant CYP19A1 (aromatase) (Homo sapiens, UniProt P11511); assay: Progesterone incubation with recombinant CYP19A1; assay type: in vitro ADME; settings: progesterone 100 μM, CYP19A1 25 pmol, data not shown
T2 sequence (P11511 1-503): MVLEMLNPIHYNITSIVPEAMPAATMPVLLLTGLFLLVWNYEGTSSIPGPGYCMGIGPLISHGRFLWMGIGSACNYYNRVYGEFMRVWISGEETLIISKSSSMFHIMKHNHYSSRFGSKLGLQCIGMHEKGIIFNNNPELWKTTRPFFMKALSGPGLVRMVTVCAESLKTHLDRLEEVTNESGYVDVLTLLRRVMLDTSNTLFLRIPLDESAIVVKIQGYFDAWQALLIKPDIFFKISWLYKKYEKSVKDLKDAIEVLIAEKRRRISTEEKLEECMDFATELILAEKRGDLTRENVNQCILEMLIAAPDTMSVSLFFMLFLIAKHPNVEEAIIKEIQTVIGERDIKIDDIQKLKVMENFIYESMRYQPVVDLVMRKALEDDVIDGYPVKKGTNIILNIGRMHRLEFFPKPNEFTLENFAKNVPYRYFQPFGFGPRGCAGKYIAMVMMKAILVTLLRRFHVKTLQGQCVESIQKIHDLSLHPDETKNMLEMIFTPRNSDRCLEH

recombinant human CYP3A4 = recombinant human CYP3A4 (Homo sapiens, UniProt P08684); settings: pH 7.4
recombinant human CYP3A4, sequence (P08684 2-503 limits assumed): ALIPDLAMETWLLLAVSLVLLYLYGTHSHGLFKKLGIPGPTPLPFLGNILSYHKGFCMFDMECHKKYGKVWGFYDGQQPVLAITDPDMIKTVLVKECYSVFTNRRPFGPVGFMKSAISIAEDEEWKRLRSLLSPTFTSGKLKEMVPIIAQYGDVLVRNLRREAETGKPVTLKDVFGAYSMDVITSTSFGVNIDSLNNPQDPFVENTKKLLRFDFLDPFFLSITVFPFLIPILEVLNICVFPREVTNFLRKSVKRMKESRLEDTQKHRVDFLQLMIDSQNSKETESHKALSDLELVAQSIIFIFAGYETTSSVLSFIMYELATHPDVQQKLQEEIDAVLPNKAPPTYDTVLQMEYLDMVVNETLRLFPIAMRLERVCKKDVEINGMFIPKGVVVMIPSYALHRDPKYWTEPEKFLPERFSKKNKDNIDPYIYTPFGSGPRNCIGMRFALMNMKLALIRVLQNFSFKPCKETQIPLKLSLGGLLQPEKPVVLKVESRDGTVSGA

CYP17A1 = settings: microsomes from CYP17A1-transfected COS1 cells; ref [11]; cited from earlier work
not read = substrate: CC(=O)[C@H]1CC[C@H]2[C@@H]3CCC4=CC(=O)CC[C@]4(C)[C@H]3CC[C@]12C; assay: not read; settings: other: rCYP3A5 20 pmol, progesterone 20–250 μM; mean ± SE (95% CI); pH 7.4
[7] = substrate: CC(=O)[C@H]1CC[C@H]2[C@@H]3CCC4=CC(=O)CC[C@]4(C)[C@H]3CC[C@]12C
[8] = HLMs 0.5 mg/mL, progesterone 20–250 μM, 30 min, mean ± SE
[9] = Fetal, CYP3A5*0*0 (nonexpresser)
[10] = Maternal, CYP3A5*0*0 (nonexpresser)

CC(=O)[C@H]1CC[C@H]2[C@@H]3C[C@@H](O)C4=CC(=O)CC[C@]4(C)[C@H]3CC[C@]12C [6β-OHP, 6β-hydroxyprogesterone]
further metabolism on incubation with HLMs ([1]; metabolite incubated with HLMs, data not shown): did not yield additional metabolism products | effect on oxytocin-induced uterine contractility frequency [2]: increased

CC(=O)[C@H]1[C@H](O)C[C@H]2[C@@H]3CCC4=CC(=O)CC[C@]4(C)[C@H]3CC[C@@]21C [16α-OHP, 16α-hydroxyprogesterone]
effect on oxytocin-induced uterine contractility frequency [2]: decreased

CC(=O)[C@H]1CC[C@H]2[C@@H]3CCC4=CC(=O)CC[C@]4(C)[C@H]3CC[C@]12C [progesterone, Progesterone]
Vmax for formation of 6β-OHP [1, 8]: 1640±111 pmol/min/mg protein | Vmax for formation of 16α-OHP [1, 8]: 192.1 ± 8.9 pmol/min/mg protein | 6β-OHP formed, fetuses expressing active CYP3A5 relative to nonexpressers [3]: ~ 3 times | clearance from fetal liver relative to maternal liver [3]: less than 0.1% | 6β-OHP CLf [3, 9]: 0.19 L/h | 16α-OHP CLf [3, 9]: 0.13 L/h | CLint, H [3, 9]: 0.32 L/h | metabolite formation (recombinant CYP2A6): did not produce detectable metabolites | activity (CLint) for 6β-OHP, CYP3A5 relative to CYP3A7 (recombinant human CYP3A5): 23 fold | intrinsic clearance (CLint), 6β-OHP formation [4]: 59.2 μL/min/mg protein | Km at 30 min (in vitro; pH 7.4, Km for formation of 6β-OHP): 27.7 ± 8.1 µM | Km at 30 min (in vitro; pH 7.4, Km for formation of 16α-OHP): 29.8 ± 5.7 µM | 6β-OHP CLf [5, 10]: 624 L/h | 16α-OHP CLf [5, 10]: 346 L/h | CLint, H [5, 10]: 970 L/h | 6β-OHP formation relative to 16α-OHP ([5]; maternal, CYP3A5 expressers): 2 fold | reduction in clearance of progesterone in CYP3A5 nonexpressers ([5]; maternal, vs CYP3A5 expressers): 5% | formation of 6β-OHP and 16α-OHP metabolites [6]: minimal formation | 6β-OHP Vmax (recombinant human CYP3A4): 22.3 ± 1.1 (20.1–24.6) pmol/min/pmol protein | 6β-OHP CLint (recombinant human CYP3A4; recombinant enzyme): 2.3 μL/min/pmol protein | enzymatic activity (CLint) for 6β-OHP, CYP3A4 relative to CYP3A5 (recombinant human CYP3A4; recombinant enzyme): 25 fold | Vmax for 16α-OHP formation (CYP17A1): 0.12 nmol/h/mg protein | Vmax for 17α-OHP formation (CYP17A1): 0.46 nmol/h/mg protein

B1: recombinant human CYP3A5 (Homo sapiens) (protein)
chain: MDLIPNLAVETWLLLAVSLVLLYLYGTRTHGLFKRLGIPGPTPLPLLGNVLSYRQGLWKFDTECYKKYGKMWGTYEGQLPVLAITDPDVIRTVLVKECYSVFTNRRSLGPVGFMKSAISLAEDEEWKRIRSLLSPTFTSGKLKEMFPIIAQYGDVLVRNLRREAEKGKPVTLKDIFGAYSMDVITGTSFGVNIDSLNNPQDPFVESTKKFLKFGFLDPLFLSIILFPFLTPVFEALNVSLFPKDTINFLSKSVNRMKKSRLNDKQKHRLDFLQLMIDSQNSKETESHKALSDLELAAQSIIFIFAGYETTSSVLSFTLYELATHPDVQQKLQKEIDAVLPNKAPPTYDAVVQMEYLDMVVNETLRLFPVAIRLERTCKKDVEINGVFIPKGSMVVIPTYALHHDPKYWTEPEEFRPERFSKKKDSIDPYIYTPFGTGPRNCIGMRFALMNMKLALIRVLQNFSFKPCKETQIPLKLDTQGLLQPEKPIVLKVDSRDGTLSGE
Km (not read): 72.5 ± 24.3 (19.5–125) μM and 60.2 ± 11.9 (40.2–89.7) μM | kcat (not read): 0.00367 s⁻¹ | kcat/Km (not read): 50 M⁻¹ s⁻¹

B2: recombinant human CYP3A7 (Homo sapiens) (protein)
chain: MDLIPNLAVETWLLLAVSLILLYLYGTRTHGLFKKLGIPGPTPLPFLGNALSFRKGYWTFDMECYKKYRKVWGIYDCQQPMLAITDPDMIKTVLVKECYSVFTNRRPFGPVGFMKNAISIAEDEEWKRIRSLLSPTFTSGKLKEMVPIIAQYGDVLVRNLRREAETGKPVTLKHVFGAYSMDVITSTSFGVSIDSLNNPQDPFVENTKKLLRFNPLDPFVLSIKVFPFLTPILEALNITVFPRKVISFLTKSVKQIKEGRLKETQKHRVDFLQLMIDSQNSKDSETHKALSDLELMAQSIIFIFAGYETTSSVLSFIIYELATHPDVQQKVQKEIDTVLPNKAPPTYDTVLQLEYLDMVVNETLRLFPVAMRLERVCKKDVEINGMFIPKGVVVMIPSYVLHHDPKYWTEPEKFLPERFSKKNKDNIDPYIYTPFGSGPRNCIGMRFALVNMKLALVRVLQNFSFKPCKETQIPLKLRFGGLLLTEKPIVLKAESRDETVSGA
Km [7]: 43.8 ± 31.0 (6.4–199) μM and 44.4 ± 23.5 (15.1–116) μM | kcat [7]: 0.00167 s⁻¹ and 0.00333 s⁻¹ | kcat/Km [7]: 50 M⁻¹ s⁻¹ and 66.7 M⁻¹ s⁻¹
